Measured values reported in patent US5286715A, “New adamantyl comprising tripeptides, derivatives and hydrochlorides thereof, their preparation and use” (priority 1989, dated 1994).
Values joined by “and” are separate entries in the source; they are usually repeats but may differ in a detail not shown here. Equal entries are not always repeated. Where two headings read alike, the source gives them in different places.

Columns and labels:
[1] = system: MCa mammary carcinoma; assay: Intramuscular tumor growth in mice bearing MCa mammary carcinoma; type: in vivo, CBA mice; details: for Primary tumor weight % Inhibition / Primary tumor weight mg ± S.E.: 24 hrs after last treatment, hydrochloride
Experimental: The antitumor activity was examined in CBA mice bearing the MCa mammary carcinoma tumor or in C57BL mice inoculated with B-16 melanoma. The doses tested, 5 and 25 mg/kg bodyweight/day, given i.v. on days 1, 5, 9, 13 after tumor implantation were devoid of severe toxicity.
(§1) ^a Groups of 7 CBA mice, inoculated i.m. into the calf of the left
(§2) hind leg with 10^6 viable MCa mammary carcinoma cells on day 0, were
(§3) given i.v. the test compounds (saline for controls) on days 1, 5, 9, 13.
^b Evaluated 24 hrs after the last treatment. The tumor growth was
estimated by calliper measurements taking tumor density equal to 1 and
using the formula: tumor weight = (π/6)xA^2 xB, with A and B as tw
perpendicular axes (A<B).

[2] = system: Influenza A virus H1N1; type: cell-based; details: MDCK cells 10^4 cells/100 μL/well
[3] = system: MCa mammary carcinoma; assay: Lung metastases development in mice bearing MCa mammary carcinoma; type: in vivo, CBA mice; details: for Animals without macroscopically detectable lung metastases % / lung metastases % Inhibition / lung metastases, mean: 25 mg/kg i.v. days 1, 5, 9, 13, evaluated day 23, hydrochloride
Experimental: | ^a Groups of 7 CBA mice, inoculated i.m. into the calf of the left | hind leg with 10^6 viable MCa mammary carcinoma cells on day 0, were | given i.v. 25 mg/kg of each test compound (saline for controls) on days 1 | 5, 9, 13. Lung metastases evaluation was performed on the freshly removed | lung tissue immediately after killing on day 23 by using a low power | stereo microscope. | ^b Animals without macroscopically detectable lung metastatic nodules

[4] = system: MCa mammary carcinoma; assay: Survival time of mice bearing MCa mammary carcinoma; type: in vivo, CBA mice; details: hydrochloride
Experimental: as §1, §2, §3
^b Survival time was recorded as the number of days of survival of
each mouse from the tumor implantation.

[5] = system: Influenza A virus H3N2; type: cell-based; details: MDCK cells 10^4 cells/100 μL/well
[6] = system: anti-HgG antibodies; assay: Immunoadjuvant activity in rabbits immunized with human gamma globulin (HgG); type: in vivo, New Zealand rabbits; details: 0.3 mg i.v. in PBS three days after immunogen; versus controls immunized with HgG in incomplete Freund's adjuvant
Experimental: The immunostimulating property of Isomer 1 and Isomer 2 of D,L(2-adamantyl-)-glycyl-L-alanyl-D-isoglutamine was tested in rabbits immunized with human gamma globulin (HgG).
New Zealand rabbits (five per group) were immunized s.c. with 0.5 mg of HgG in incomplete Freund's adjuvant. Isomer 1/Isomer 2 (0.3 mg) was administered i.v. in phosphate buffered saline (PBS) three days after immunogen. The formation of anti-HgG antibodies was followed by a solid phase radioimmunoassay method to provide a quantitative measure of anti-HgG antibodies in rabbit sera. Serum antibody content (mg/mL) was determined by parallel line bioassay method, using >>SIGMA<< antihuman IgG (whole molecule) as a standard.

[7] = system: melanoma B-16; assay: Lung metastases development in mice bearing melanoma B-16; type: in vivo, C57BL/6 mice; details: for Animals without metastases % / Number of metastatic nodules/mouse % inhibition / Number of metastatic nodules/mouse mean (min-max): counted day 30; for reduction of lung metastases to a fraction of the number in untreated control groups: i.v. administration on day 4
Experimental: ^a Groups of 8 C57BL/6 mice (5-6 months old), inoculated i.v. with
10^5 melanoma B16 cells on day 0, were given i.v. 25 mg/kg of each
test compound (saline for controls) on days 4 or 7.
Macroscopically detectable lung metastases were counted on day 30.

[8] = 25 mg/kg i.v. on day +4, hydrochloride
[9] = 25 mg/kg i.v. on day +7, hydrochloride

C[C@H](NC(=O)C(N)C1C2CC3CC(C2)CC1C3)C(=O)N[C@H](CCC(=O)O)C(N)=O.Cl (single isomer, unassigned; isomer 2) [Isomer 2, D,L-(2-Adamantyl-)-glycyl-L-alanyl-D-isoglutamine hydrochloride]
reduction of the volume of the intramuscular tumor ([1]; 5 mg/kg bodyweight/day i.v., 24 hours after the last day of treatment): 44%
Primary tumor weight % Inhibition ([1]; 5 mg/kg i.v. days 1, 5, 9, 13): -44%
Primary tumor weight mg ± S.E. ([1]; 5 mg/kg i.v. days 1, 5, 9, 13): 1076 ± 132 mg
Primary tumor weight % Inhibition ([1]; 25 mg/kg i.v. days 1, 5, 9, 13): -19%
Primary tumor weight mg ± S.E. ([1]; 25 mg/kg i.v. days 1, 5, 9, 13): 1559 ± 177 mg
MIC (minimum inhibitory concentration) ([2]; hydrochloride): 100 µg
spontaneous dissemination of tumor to the lungs, % of controls ([3]; 25 mg/kg bodyweight/day i.v.): 24 % of controls
Animals without macroscopically detectable lung metastases % [3]: 57.1% and 57%
lung metastases % Inhibition [3]: -76%
lung metastases, mean [3]: 1.14
Survival time % Increase ([4]; 5 mg/kg i.v. days 1, 5, 9, 13): +22%
Survival time (days) mean (min-max) ([4]; 5 mg/kg i.v. days 1, 5, 9, 13): 27.4 (18-40) days
Survival time % Increase ([4]; 25 mg/kg i.v. days 1, 5, 9, 13): +32%
Survival time (days) mean (min-max) ([4]; 25 mg/kg i.v. days 1, 5, 9, 13): 29.7 (18-40) days
MIC (minimum inhibitory concentration) ([5]; hydrochloride): 50 µg
Antibody formation against HgG [6]: significantly enhanced
Animals without metastases % ([7]; 25 mg/kg i.v. on day +4): 37%
Number of metastatic nodules/mouse % inhibition [7, 8]: -69%
Number of metastatic nodules/mouse mean (min-max) [7, 8]: 0.97 (0-2)
Animals without metastases % [7, 9]: 28%
Number of metastatic nodules/mouse % inhibition [7, 9]: -48%
Number of metastatic nodules/mouse mean (min-max) [7, 9]: 1.38 (0-4)
reduction of lung metastases to a fraction of the number in untreated control groups [7]: 1/3

C[C@H](NC(=O)C(N)C1C2CC3CC(C2)CC1C3)C(=O)N[C@H](CCC(=O)O)C(N)=O.Cl (single isomer, unassigned; isomer 1) [Isomer 1, D,L-(2-Adamantyl-)-glycyl-L-alanyl-D-isoglutamine hydrochloride]
Primary tumor weight % Inhibition ([1]; 5 mg/kg i.v. days 1, 5, 9, 13): -28%
Primary tumor weight mg ± S.E. ([1]; 5 mg/kg i.v. days 1, 5, 9, 13): 1387 ± 224 mg
Primary tumor weight % Inhibition ([1]; 25 mg/kg i.v. days 1, 5, 9, 13): -21%
Primary tumor weight mg ± S.E. ([1]; 25 mg/kg i.v. days 1, 5, 9, 13): 1522 ± 182 mg
MIC (minimum inhibitory concentration) ([2]; hydrochloride): 12.5 µg
Animals without macroscopically detectable lung metastases % [3]: 14.3%
lung metastases % Inhibition [3]: -43%
lung metastases, mean [3]: 2.71
Survival time % Increase ([4]; 5 mg/kg i.v. days 1, 5, 9, 13): +10%
Survival time (days) mean (min-max) ([4]; 5 mg/kg i.v. days 1, 5, 9, 13): 24.6 (18-31) days
Survival time % Increase ([4]; 25 mg/kg i.v. days 1, 5, 9, 13): +13%
Survival time (days) mean (min-max) ([4]; 25 mg/kg i.v. days 1, 5, 9, 13): 25.4 (15-40) days
MIC (minimum inhibitory concentration) ([5]; hydrochloride): > 200 µg
Animals without metastases % ([7]; 25 mg/kg i.v. on day +4): 37%
Number of metastatic nodules/mouse % inhibition [7, 8]: -68%
Number of metastatic nodules/mouse mean (min-max) [7, 8]: 1.0 (0-2)
Animals without metastases % [7, 9]: 37%
Number of metastatic nodules/mouse % inhibition [7, 9]: -76%
Number of metastatic nodules/mouse mean (min-max) [7, 9]: 0.64 (0-1)
reduction of lung metastases to a fraction of the number in untreated control groups [7]: 1/3

NC12CC3CC(CC(C3)C1)C2 [Symmetrel, amantadine, reference compound]
MIC (minimum inhibitory concentration) [2]: < 12.5 µg
MIC (minimum inhibitory concentration) [5]: < 12.5 µg
